Data from the supplement of paper PMC6965134.
± gives the standard deviation of the averaged measurements.

Assay: TIMS collisional cross section (CCS, N2) of the lipid ion; higher = larger ion cross section
Settings: ionization mode: negative, one isomer drawn
Description: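 Lipid extracts of human plasma (NIST SRM 1950), mouse liver or HeLa cells were separated by nanoflow C18 LC (30 min gradient) and analysed by TIMS-PASEF on a timsTOF Pro. Ion mobility was calibrated with the Agilent tuning mix (negative mode ions) and converted to collisional cross sections (Mason–Schamp, N2).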

[1] = sample type: Human plasma, ion (formula + adduct): [C42H78NO8P+HCOO] 1-
[2] = sample type: Mouse Liver, ion (formula + adduct): [C42H78NO8P+HCOO] 1-
[3] = sample type: Mouse Liver, ion (formula + adduct): [C46H82NO8P+HCOO] 1-
[4] = sample type: Mouse Liver, ion (formula + adduct): [C45H82NO8P+HCOO] 1-
[5] = sample type: Mouse Liver, ion (formula + adduct): [C47H82NO8P+HCOO] 1-
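Further: lipids from MTBE extraction, five replicate injections per sample, 100 ms TIMS ramp spanning 0.6–1.95 Vs/cm², lipid identity assigned from PASEF MS/MS spectra.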

For `C=CC(=O)O[C@H](COC(=O)CCCCCCCCCCCCCCC)COP(=O)([O-])OCC[N+](C)(C)C` [PC 16:0_3:1], the “TIMS collisional cross section” value (sample type: Human plasma, ion (formula + adduct): [C27H52NO8P+AcO] 1-) was 245.3 Å² and the “TIMS collisional cross section” value (sample type: Mouse Liver, ion (formula + adduct): [C27H52NO8P+OAcO] 1-) was 252.2 Å².

For `C=CCCC(=O)O[C@H](COC(=O)CCCCCCCCCCCCCCC)COP(=O)([O-])OCC[N+](C)(C)C` [PC 16:0_5:1@], the “TIMS collisional cross section” value (sample type: Mouse Liver, ion (formula + adduct): [C29H56NO8P+HCOO] 1-) was 247.5 Å².

For `C=CCCC(=O)O[C@H](COC(=O)CCCCCCCCCCCCCCC)COP(=O)([O-])OCC[N+](C)(C)C` [PC 16:0_5:1], the “TIMS collisional cross section” value (sample type: Mouse Liver, ion (formula + adduct): [C29H56NO8P+AcO] 1-) was 252.1 Å².

In the case of `CCCCCCCCCCCCCCCC(=O)OC[C@H](COP(=O)([O-])OCC[N+](C)(C)C)OC(=O)CCCCCCCC` [PC 16:0_9:0@], the “TIMS collisional cross section” value (sample type: Human plasma, ion (formula + adduct): [C33H66NO8P-H] 1-) is reported as 260.3 Å².

In the case of `CCCCCCCCCCCCCCCC(=O)OC[C@H](COP(=O)([O-])OCC[N+](C)(C)C)OC(=O)CCCCCCCCCCCCCCC` [PC 16:0_16:0], the “TIMS collisional cross section” value (sample type: Human plasma, ion (formula + adduct): [C40H80NO8P+HCOO] 1-) is reported as 289.35 ± 2.3 Å² and the “TIMS collisional cross section” value (sample type: Mouse Liver, ion (formula + adduct): [C40H80NO8P+HCOO] 1-) is reported as 287.7 Å².

In the case of `CCCCCC/C=C\CCCCCCCC(=O)O[C@H](COC(=O)CCCCCCCCCCCCCCC)COP(=O)([O-])OCC[N+](C)(C)C` [PC 16:0_16:1], the “TIMS collisional cross section” value (sample type: Human plasma, ion (formula + adduct): [C40H78NO8P+HCOO] 1-) is reported as 286.6 Å².

In the case of `CCCCCCCCCCCCCCCCC(=O)O[C@H](COC(=O)CCCCCCCCCCCCCCC)COP(=O)([O-])OCC[N+](C)(C)C` [PC 16:0_17:0], the “TIMS collisional cross section” value (sample type: Human plasma, ion (formula + adduct): [C41H82NO8P+HCOO] 1-) is reported as 290.3 Å².

With `CCCCCCC/C=C\CCCCCCCC(=O)O[C@H](COC(=O)CCCCCCCCCCCCCCC)COP(=O)([O-])OCC[N+](C)(C)C` [PC 16:0_17:1] the “TIMS collisional cross section” value (sample type: Mouse Liver, ion (formula + adduct): [C41H80NO8P+HCOO] 1-) was 288.8 Å².

In the case of `CCCCCCCCCCCCCCCCCC(=O)O[C@H](COC(=O)CCCCCCCCCCCCCCC)COP(=O)([O-])OCC[N+](C)(C)C` [PC 16:0_18:0], the “TIMS collisional cross section” value (sample type: Human plasma, ion (formula + adduct): [C42H84NO8P+HCOO] 1-) is reported as 293.4 Å², the “TIMS collisional cross section” value (sample type: Mouse Liver, ion (formula + adduct): [C42H84NO8P+AcO] 1-) is reported as 299.1 Å² and the “TIMS collisional cross section” value (sample type: Mouse Liver, ion (formula + adduct): [C42H84NO8P+HCOO] 1-) is reported as 293.4 Å².

With `CCCCC/C=C\C/C=C\C/C=C\CCCCC(=O)O[C@H](COC(=O)CCCCCCCCCCCCCCC)COP(=O)([O-])OCC[N+](C)(C)C` [PC 16:0_18:3@] the “TIMS collisional cross section” value [1] was 288.8 Å².

With `CCCCC/C=C\C/C=C\C/C=C\CCCCC(=O)O[C@H](COC(=O)CCCCCCCCCCCCCCC)COP(=O)([O-])OCC[N+](C)(C)C` [PC 16:0_18:3] the “TIMS collisional cross section” value [1] was 289.9 Å² and the “TIMS collisional cross section” value [2] was 289.15 ± 0.21 Å².

For `CC/C=C\C/C=C\C/C=C\C/C=C\C/C=C\CCCC(=O)O[C@H](COC(=O)CCCCCCCCCCCCCCC)COP(=O)([O-])OCC[N+](C)(C)C` [PC 16:0_20:5], the “TIMS collisional cross section” value (sample type: Human plasma, ion (formula + adduct): [C44H78NO8P+HCOO] 1-) was 292.7 Å² and the “TIMS collisional cross section” value (sample type: Mouse Liver, ion (formula + adduct): [C44H78NO8P-CH3] 1-) was 275.6 Å².

For `CCCCC/C=C\C/C=C\C/C=C\C/C=C\C/C=C\CCC(=O)O[C@H](COC(=O)CCCCCCCCCCCCCCC)COP(=O)([O-])OCC[N+](C)(C)C` [PC 16:0_22:5], the “TIMS collisional cross section” value [3] was 298.9 Å².

With `CC/C=C\C/C=C\C/C=C\C/C=C\C/C=C\C/C=C\CCC(=O)O[C@H](COC(=O)CCCCCCCCCCCCCCC)COP(=O)([O-])OCC[N+](C)(C)C` [PC 16:0_22:6] the “TIMS collisional cross section” value (sample type: Human plasma, ion (formula + adduct): [C46H80NO8P+HCOO] 1-) was 297.8 Å² and the “TIMS collisional cross section” value (sample type: Mouse Liver, ion (formula + adduct): [C46H80NO8P+HCOO] 1-) was 297.75 ± 0.78 Å².

For `CCCCC/C=C\C/C=C\CCCCCCCC(=O)O[C@H](COC(=O)CCCCCCC/C=C\CCCCCC)COP(=O)([O-])OCC[N+](C)(C)C` [PC 16:1@_18:2], the “TIMS collisional cross section” value (sample type: Mouse Liver, ion (formula + adduct): [C42H78NO8P-H] 1-) was 273.3 Å².

With `CCCCC/C=C\C/C=C\C/C=C\C/C=C\CCCCCC(=O)O[C@H](COC(=O)CCCCCCC/C=C\CCCCCC)COP(=O)([O-])OCC[N+](C)(C)C` [PC 16:1@_22:4] the “TIMS collisional cross section” value [3] was 297.7 Å².

In the case of `CCCCC/C=C\C/C=C\C/C=C\C/C=C\C/C=C\CCC(=O)O[C@H](COC(=O)CCCCCCC/C=C\CCCCCC)COP(=O)([O-])OCC[N+](C)(C)C` [PC 16:1@_22:5], the “TIMS collisional cross section” value (sample type: Mouse Liver, ion (formula + adduct): [C46H80NO8P-CH3] 1-) is reported as 280.1 Å².

With `CCCCCC/C=C\CCCCCCCC(=O)OC[C@H](COP(=O)([O-])OCC[N+](C)(C)C)OC(=O)CCCCCCCCCCCCC/C=C\CCCCCCCC` [PC 16:1@_24:1] the “TIMS collisional cross section” value (sample type: Mouse Liver, ion (formula + adduct): [C48H92NO8P-CH3] 1-) was 290.9 Å².

In the case of `CCCCC/C=C\C/C=C\CCCCCCCC(=O)O[C@H](COC(=O)CCCCCCC/C=C\CCCCCC)COP(=O)([O-])OCC[N+](C)(C)C` [PC 16:1_18:2], the “TIMS collisional cross section” value [2] is reported as 288.8 Å² and the “TIMS collisional cross section” value (sample type: Mouse Liver, ion (formula + adduct): [C42H78NO8P-CH3] 1-) is reported as 270.5 Å².

In the case of `CCCCC/C=C\C/C=C\C/C=C\CCCCCCC(=O)O[C@H](COC(=O)CCCCCCC/C=C\CCCCCC)COP(=O)([O-])OCC[N+](C)(C)C` [PC 16:1_20:3], the “TIMS collisional cross section” value (sample type: Mouse Liver, ion (formula + adduct): [C44H80NO8P-CH3] 1-) is reported as 276.2 Å².

In the case of `CC/C=C\C/C=C\C/C=C\C/C=C\C/C=C\CCCC(=O)O[C@H](COC(=O)CCCCCCC/C=C\CCCCCC)COP(=O)([O-])OCC[N+](C)(C)C` [PC 16:1_20:5], the “TIMS collisional cross section” value (sample type: Human plasma, ion (formula + adduct): [C44H76NO8P+HCOO] 1-) is reported as 290.4 Å² and the “TIMS collisional cross section” value (sample type: Mouse Liver, ion (formula + adduct): [C44H76NO8P+HCOO] 1-) is reported as 290.4 Å².

For `CC/C=C\C/C=C\C/C=C\C/C=C\C/C=C\C/C=C\CCC(=O)O[C@H](COC(=O)CCCCCCC/C=C\CCCCCC)COP(=O)([O-])OCC[N+](C)(C)C` [PC 16:1_22:6], the “TIMS collisional cross section” value (sample type: Human plasma, ion (formula + adduct): [C46H78NO8P+HCOO] 1-) was 295.4 Å².

In the case of `CCCCCCCCCCCCCCCCC(=O)OC[C@H](COP(=O)([O-])OCC[N+](C)(C)C)OC(C)=O` [PC 17:0@_2:0], the “TIMS collisional cross section” value (sample type: Human plasma, ion (formula + adduct): [C27H54NO8P-H] 1-) is reported as 239 ± 3 Å².

In the case of `CCCCCCCC/C=C\CCCCCCCC(=O)O[C@H](COC(=O)CCCCCCCCCCCCCCCC)COP(=O)([O-])OCC[N+](C)(C)C` [PC 17:0@_18:1], the “TIMS collisional cross section” value (sample type: Mouse Liver, ion (formula + adduct): [C43H84NO8P+HCOO] 1-) is reported as 294.5 Å².

For `CCCCC/C=C\C/C=C\C/C=C\C/C=C\CCCC(=O)O[C@H](COC(=O)CCCCCCCCCCCCCCCC)COP(=O)([O-])OCC[N+](C)(C)C` [PC 17:0@_20:4], the “TIMS collisional cross section” value [4] was 296.7 Å².

For `CC/C=C\C/C=C\C/C=C\C/C=C\C/C=C\C/C=C\CCC(=O)O[C@H](COC(=O)CCCCCCCCCCCCCCCC)COP(=O)([O-])OCC[N+](C)(C)C` [PC 17:0@_22:6], the “TIMS collisional cross section” value (sample type: Human plasma, ion (formula + adduct): [C47H82NO8P+HCOO] 1-) was 301.2 Å² and the “TIMS collisional cross section” value [5] was 301.2 Å².

In the case of `CCCCCCCC/C=C\CCCCCCCC(=O)O[C@H](COC(=O)CCCCCCCCCCCCCCCC)COP(=O)([O-])OCC[N+](C)(C)C` [PC 17:0_18:1], the “TIMS collisional cross section” value (sample type: Human plasma, ion (formula + adduct): [C43H84NO8P+HCOO] 1-) is reported as 294.5 Å².

For `CCCCC/C=C\C/C=C\CCCCCCCC(=O)O[C@H](COC(=O)CCCCCCCCCCCCCCCC)COP(=O)([O-])OCC[N+](C)(C)C` [PC 17:0_18:2], the “TIMS collisional cross section” value (sample type: Mouse Liver, ion (formula + adduct): [C43H82NO8P+HCOO] 1-) was 293.3 Å².

For `CCCCC/C=C\C/C=C\C/C=C\C/C=C\CCCC(=O)O[C@H](COC(=O)CCCCCCCCCCCCCCCC)COP(=O)([O-])OCC[N+](C)(C)C` [PC 17:0_20:4], the “TIMS collisional cross section” value [4] was 297.2 Å².

With `CC/C=C\C/C=C\C/C=C\C/C=C\C/C=C\C/C=C\CCC(=O)O[C@H](COC(=O)CCCCCCCCCCCCCCCC)COP(=O)([O-])OCC[N+](C)(C)C` [PC 17:0_22:6] the “TIMS collisional cross section” value [5] was 300.6 Å².

In the case of `C=CC(=O)O[C@H](COC(=O)CCCCCCCCCCCCCCCCC)COP(=O)([O-])OCC[N+](C)(C)C` [PC 18:0@_3:1], the “TIMS collisional cross section” value (sample type: Mouse Liver, ion (formula + adduct): [C29H56NO8P+OAcO] 1-) is reported as 258.4 Å².

For `CCCCC/C=C\C/C=C\C/C=C\C/C=C\CCCC(=O)O[C@H](COC(=O)CCCCCCCCCCCCCCCCC)COP(=O)([O-])OCC[N+](C)(C)C` [PC 18:0@_20:4], the “TIMS collisional cross section” value (sample type: Human plasma, ion (formula + adduct): [C46H84NO8P+HCOO] 1-) was 297.2 Å².

For `CC/C=C\C/C=C\C/C=C\C/C=C\C/C=C\CCCC(=O)O[C@H](COC(=O)CCCCCCCCCCCCCCCCC)COP(=O)([O-])OCC[N+](C)(C)C` [PC 18:0@_20:5], the “TIMS collisional cross section” value (sample type: Human plasma, ion (formula + adduct): [C46H82NO8P+HCOO] 1-) was 301.2 Å².
